Reference: paper PMC4535380, “Overproduction of pro-transglutaminase from Streptomyces hygroscopicus in Yarrowia lipolytica and its biochemical characterization” (BMC Biotechnology, 2015)
Like-named read-outs stand apart in the source and are kept apart here. Peptide text beside a SMILES is read from it. * marks the point of attachment. Cbz = O=C(OCc1ccccc1)*

Key:
Type in all cases: biochemical, Streptomyces hygroscopicus
activated pro-TGase [1] = test system: T1, activated pro-TGase; experiment: colorimetric hydroxamate assay at […] nm, Lineweaver-Burk; conditions: hydroxylamine co-substrate (assay b48), 50 mmol/L Tris-HCl pH 6.0; substrate 6-30 mmol/L (below Km); dispase-activated; read-out: N160Q
T1 construct: pro-TGase behind XPR2 pre signal, secreted by Yarrowia lipolytica Po1h (pINA1297), N-glycosylated; no tag mentioned

activated pro-TGase [2] = test system: T1, activated pro-TGase; experiment: as above; conditions: hydroxylamine co-substrate (assay b48), 50 mmol/L Tris-HCl pH 6.0; substrate 6-30 mmol/L (below Km); dispase-activated; read-out: N355Q
activated pro-TGase [3] = test system: T1, activated pro-TGase; experiment: as above; conditions: hydroxylamine co-substrate (assay b48), 50 mmol/L Tris-HCl pH 6.0; substrate 6-30 mmol/L (below Km); dispase-activated; read-out: N160Q/N355Q
[4] = test system: T2, NC(=O)CC[C@H](NC(=O)OCc1ccccc1)C(=O)NCC(=O)O; experiment: purified protein; conditions: hydroxylamine co-substrate (assay b48), 50 mmol/L Tris-HCl pH 6.0, substrate 6-30 mmol/L (below Km), dispase-activated, 37.0 °C
T2 construct: pro-TGase behind XPR2 pre signal, secreted by Yarrowia lipolytica Po1h (pINA1297), N-glycosylated; no tag mentioned

Row | Molecule | Km (activated pro-TGase [1]) [mM] | Km (activated pro-TGase [2]) [mM] | Km (activated pro-TGase [3]) [mM] | Km [4] [mM] | kcat [4] [s⁻¹]
1 | NC(=O)CC[C@H](NC(=O)OCc1ccccc1)C(=O)NCC(=O)O [N-CBZ-Gln-Gly] (Cbz-Gln-Gly-OH) | 47 ± 1.5 | 54.7 ± 2.1 | 48.4 ± 2.4 | – | –
2 | activated pro-TGase (wild type) (Streptomyces hygroscopicus) | – | – | – | 59.5 ± 2.3 | 31.5 ± 1.7
